Experiments:
[1] = test system: S. aureus DSM 20231; assay: Bliss interaction score (quartile over a dose matrix) (fitness difference); higher = more antagonism (negative = synergy)
Procedure, shortened: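 Fitness was defined as normalised growth: OD595 at the start of stationary phase divided by the plate's robust no-drug mean and capped at 1. Single-drug fitness was inferred from combination measurements. The Bliss score is observed fitness minus the product of the single-drug values, summarised by quartiles across technical, biological and donor/recipient replicates.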

[2] = test system: S. aureus DSM 20231; assay: fitness (endpoint OD595 vs no drug) (fraction); higher = more growth
Procedure, shortened: (§1)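 Fitness was measured as bacterial growth in 384-well plates inoculated at OD595 0.01 (30 µl, or 55 µl for S. pneumoniae). Media were TSB, LB Lennox or CY, at 37 °C. OD595 was read every 30 min for 14 h and background-subtracted against the first reading. Fitness is OD595 at the transition into stationary phase divided by the robust mean of no-drug control wells, capped at 1.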

[3] = test system: S. aureus Newman; assay: as above
Procedure, shortened: as §1

[4] = test system: S. pneumoniae D39V; assay: as above
Procedure, shortened: as §1

[5] = first compound 0.0156 µg/mL, partner 0.0156 µg/mL
[6] = first compound 0.0156 µg/mL, partner 0.0312 µg/mL
[7] = first compound 0.0156 µg/mL, partner 0.0625 µg/mL
[8] = first compound 0.0312 µg/mL, partner 0.0156 µg/mL
[9] = first compound 0.0312 µg/mL, partner 0.0312 µg/mL
[10] = first compound 0.0312 µg/mL, partner 0.0625 µg/mL
[11] = first compound 0.0625 µg/mL, partner 0.0156 µg/mL
[12] = first compound 0.0625 µg/mL, partner 0.0312 µg/mL
[13] = first compound 0.0625 µg/mL, partner 0.0625 µg/mL
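Throughout, for Bliss interaction score (quartile over a dose matrix): first quartile when negative (synergy) and third quartile when positive (antagonism).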
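Throughout, for fitness (endpoint OD595 vs no drug): OD595 on entry to stationary phase over no-drug wells; at most 1.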

## CO[C@@]12[C@H](COC(N)=O)C3=C(C(=O)C(C)=C(N)C3=O)N1C[C@@H]1N[C@@H]12 [MitomycinC] + COc1ccc(CCN(C)CCCC(C#N)(c2ccc(OC)c(OC)c2)C(C)C)cc1OC [Verapamil]
[1]
  Bliss interaction score: 0.195

## CC(C)(O)c1ccccc1CC[C@@H](SCC1(CC(=O)O)CC1)c1cccc(/C=C/c2ccc3ccc(Cl)cc3n2)c1 [Montelukast] + COc1cc(Cc2cnc(N)nc2N)cc(OC)c1OC [Trimethoprim]
[1]
  Bliss interaction score: -0.299

## CN[C@@H]1[C@H](O)[C@H](NC)[C@H]2O[C@@]3(O)C(=O)C[C@@H](C)O[C@H]3O[C@@H]2[C@H]1O [Spectinomycin] + Cc1c(Cl)cccc1Nc1ccccc1C(=O)O [Tolfenamic]
[1]
  Bliss interaction score: 0.145

## C=C1/C(=C\C=C2/CCC[C@]3(C)[C@@H]([C@H](C)CCCC(C)C)CC[C@@H]23)C[C@@H](O)C[C@@H]1O [Alfacalcidol] + O=C1CN(/N=C/c2ccc([N+](=O)[O-])o2)C(=O)N1 [Nitrofurantoin]
[1]
  Bliss interaction score: 0.185

## CC[C@H](c1ccc(O)cc1)[C@@H](CC)c1ccc(O)cc1 [Hexestrol] + CN(C)C(=O)C(CCN1CCC(O)(c2ccc(Cl)cc2)CC1)(c1ccccc1)c1ccccc1 [Loperamide]
[1]
  Bliss interaction score: -0.456

## CO[C@@H]1[C@@H](OC(N)=O)[C@@H](O)[C@H](Oc2ccc3c(O)c(NC(=O)c4ccc(O)c(CC=C(C)C)c4)c(=O)oc3c2C)OC1(C)C [Novobiocin] + CCCSc1nc(N[C@@H]2C[C@H]2c2ccc(F)c(F)c2)c2nnn([C@@H]3C[C@H](OCCO)[C@@H](O)[C@H]3O)c2n1 [Ticagrelor]
[1]
  Bliss interaction score: 0.177

## CN[C@@H]1[C@H](O[C@H]2[C@H](O[C@H]3[C@H](O)[C@@H](O)[C@H](N=C(N)N)[C@@H](O)[C@@H]3N=C(N)N)O[C@@H](C)[C@]2(O)C=O)O[C@@H](CO)[C@H](O)[C@H]1O [Streptomycin] + CC/C(=C(\c1ccccc1)c1ccc(OCCN(C)C)cc1)c1ccccc1 [Tamoxifene]
[1]
  Bliss interaction score: 0.166

## O=c1[nH]cc(F)c(=O)[nH]1 [Fluorouracil] + CN[C@@H]1[C@H](O[C@H]2[C@H](O[C@H]3[C@H](O)[C@@H](O)[C@H](N=C(N)N)[C@@H](O)[C@@H]3N=C(N)N)O[C@@H](C)[C@]2(O)C=O)O[C@@H](CO)[C@H](O)[C@H]1O [Streptomycin]
[1]
  Bliss interaction score: -0.184

## CO[C@H]1/C=C/O[C@@]2(C)Oc3c(C)c(O)c4c(O)c(c(/C=N/N5CCN(C)CC5)c(O)c4c3C2=O)NC(=O)/C(C)=C\C=C\[C@H](C)[C@H](O)[C@@H](C)[C@@H](O)[C@@H](C)[C@H](OC(C)=O)[C@@H]1C [Rifampicin] + CCCSc1nc(N[C@@H]2C[C@H]2c2ccc(F)c(F)c2)c2nnn([C@@H]3C[C@H](OCCO)[C@@H](O)[C@H]3O)c2n1 [Ticagrelor]
[1]
  Bliss interaction score: 0.245

## O=c1[nH]cc(F)c(=O)[nH]1 [Fluorouracil] + CN(C)C(=O)C(CCN1CCC(O)(c2ccc(Cl)cc2)CC1)(c1ccccc1)c1ccccc1 [Loperamide]
[1]
  Bliss interaction score: 0.195

## CO[C@@]12[C@H](COC(N)=O)C3=C(C(=O)C(C)=C(N)C3=O)N1C[C@@H]1N[C@@H]12 [MitomycinC] + CCCc1nc2c(C)cc(-c3nc4ccccc4n3C)cc2n1Cc1ccc(-c2ccccc2C(=O)O)cc1 [Telmisartan]
[1]
  Bliss interaction score: -0.162

## O=c1[nH]cc(F)c(=O)[nH]1 [Fluorouracil] + O=C1CN(/N=C/c2ccc([N+](=O)[O-])o2)C(=O)N1 [Nitrofurantoin]
[1]
  Bliss interaction score: -0.206

## CN(Cc1cnc2nc(N)nc(N)c2n1)c1ccc(C(=O)N[C@@H](CCC(=O)O)C(=O)O)cc1 [Methotrexate] + CC1(C)S[C@@H]2[C@H](NC(=O)Cc3ccccc3)C(=O)N2[C@H]1C(=O)O [PenicillinG]
[1]
  Bliss interaction score: -0.169

## CC(C)(O)c1ccccc1CC[C@@H](SCC1(CC(=O)O)CC1)c1cccc(/C=C/c2ccc3ccc(Cl)cc3n2)c1 [Montelukast] + CN[C@H](CC(C)C)C(=O)N[C@H]1C(=O)N[C@@H](CC(N)=O)C(=O)N[C@H]2C(=O)N[C@H]3C(=O)N[C@H](C(=O)N[C@H](C(=O)O)c4cc(O)cc(O)c4-c4cc3ccc4O)[C@H](O[C@H]3C[C@](C)(N)[C@@H](O)[C@H](C)O3)c3ccc(c(Cl)c3)Oc3cc2cc(c3O[C@@H]2O[C@H](CO)[C@@H](O)[C@H](O)[C@H]2O[C@H]2C[C@](C)(NCc3ccc(-c4ccc(Cl)cc4)cc3)[C@@H](O)[C@H](C)O2)Oc2ccc(cc2Cl)[C@H]1O [Oritavancin]
[1]
  Bliss interaction score: 0.247

## CO[C@@]12[C@H](COC(N)=O)C3=C(C(=O)C(C)=C(N)C3=O)N1C[C@@H]1N[C@@H]12 [Mitomycin C] + Cc1onc(-c2ccccc2)c1C(=O)N[C@@H]1C(=O)N2[C@@H]1SC(C)(C)[C@@H]2C(=O)O [Oxacillin]
[2]; [5]
  fitness: 0.586
[2]; [6]
  fitness: 0.458
[2]; [7]
  fitness: 0.389
[2]; [8]
  fitness: 0.581
[2]; [9]
  fitness: 0.499
[2]; [10]
  fitness: 0.432
[2]; [11]
  fitness: 0.544
[2]; [12]
  fitness: 0.474
[2]; [13]
  fitness: 0.348
[3]; [5]
  fitness: 0.672
[3]; [6]
  fitness: 0.616
[3]; [7]
  fitness: 0.485
[3]; [8]
  fitness: 0.571
[3]; [9]
  fitness: 0.534
[3]; [10]
  fitness: 0.423
[3]; [11]
  fitness: 0.421
[3]; [12]
  fitness: 0.307
[3]; [13]
  fitness: 0.111
[4]; first compound 0.001075 µg/mL, partner 0.01 µg/mL
  fitness: 0.973
[4]; first compound 0.001075 µg/mL, partner 0.02 µg/mL
  fitness: 0.957
[4]; first compound 0.002 µg/mL, partner 0.01 µg/mL
  fitness: 0.838
[4]; first compound 0.002 µg/mL, partner 0.02 µg/mL
  fitness: 0.764
[4]; first compound 0.002 µg/mL, partner 0.04 µg/mL
  fitness: 0.219
[4]; first compound 0.00215 µg/mL, partner 0.01 µg/mL
  fitness: 0.974
[4]; first compound 0.00215 µg/mL, partner 0.02 µg/mL
  fitness: 0.968
[4]; first compound 0.00215 µg/mL, partner 0.04 µg/mL
  fitness: 0.605
[4]; first compound 0.004 µg/mL, partner 0.01 µg/mL
  fitness: 0.813
[4]; first compound 0.004 µg/mL, partner 0.02 µg/mL
  fitness: 0.735
[4]; first compound 0.004 µg/mL, partner 0.04 µg/mL
  fitness: 0.227
[4]; first compound 0.0043 µg/mL, partner 0.01 µg/mL
  fitness: 0.891
[4]; first compound 0.0043 µg/mL, partner 0.02 µg/mL
  fitness: 0.822
[4]; first compound 0.008 µg/mL, partner 0.01 µg/mL
  fitness: 0.664
[4]; first compound 0.008 µg/mL, partner 0.02 µg/mL
  fitness: 0.636
[4]; first compound 0.008 µg/mL, partner 0.04 µg/mL
  fitness: 0.241

From the supplement of paper PMC10627819
